Data published in the NIST ThermoML archive (doi:10.1021/acs.jced.8b00509).

Experiment: mn = molality of the nth substance listed, in mol/kg
Settings: 100 kPa, Liquid; for viscosity: Capillary tube (Ostwald / Ubbelohde) method; for speed of sound: Frequency=3 MHz, Single path-length method; for mass density: Vibrating tube method

C[C@H](CCC(=O)[O-])[C@H]1CC[C@H]2[C@@H]3CC[C@@H]4C[C@H](O)CC[C@]4(C)[C@H]3C[C@H](O)[C@]12C.[Na+] [sodium deoxycholate] + O
Settings	mass density [kg/m3]	speed of sound [m/s]	viscosity [mPa·s]
293.15 K, m1 = 0.001	998.38	1483.7	1.003
293.15 K, m1 = 0.002	998.49	1484.1	1.004
293.15 K, m1 = 0.003	998.58	1484.5	1.006
293.15 K, m1 = 0.004	998.67	1484.7	1.009
293.15 K, m1 = 0.005	998.75	1484.9	1.014
293.15 K, m1 = 0.006	998.83	1485.2	1.027
293.15 K, m1 = 0.007	998.92	1485.4	1.036
293.15 K, m1 = 0.008	999.01	1485.6	1.04
293.15 K, m1 = 0.009	999.11	1485.8	1.045
293.15 K, m1 = 0.01	999.21	1486	1.047
293.15 K, m1 = 0.011	999.32	1486.2	1.05
293.15 K, m1 = 0.012	999.4	1486.4	1.051
298.15 K, m1 = 0.001	997.22	1497.4	0.892
298.15 K, m1 = 0.002	997.31	1497.6	0.893
298.15 K, m1 = 0.003	997.39	1497.9	0.894
298.15 K, m1 = 0.004	997.48	1498.1	0.897
298.15 K, m1 = 0.005	997.56	1498.3	0.902
298.15 K, m1 = 0.006	997.65	1498.6	0.915
298.15 K, m1 = 0.007	997.73	1498.8	0.924
298.15 K, m1 = 0.008	997.83	1499	0.928
298.15 K, m1 = 0.009	998.01	1499.3	0.932
298.15 K, m1 = 0.01	998.11	1499.5	0.934
298.15 K, m1 = 0.011	998.2	1499.7	0.937
298.15 K, m1 = 0.012	998.2	1499.9	0.938
303.15 K, m1 = 0.001	995.81	1509.6	0.799
303.15 K, m1 = 0.002	995.91	1509.8	0.8
303.15 K, m1 = 0.003	995.98	1510	0.801
303.15 K, m1 = 0.004	996.07	1510.2	0.804
303.15 K, m1 = 0.005	996.14	1510.4	0.809
303.15 K, m1 = 0.006	996.22	1510.7	0.822
303.15 K, m1 = 0.007	996.3	1510.9	0.83
303.15 K, m1 = 0.008	996.39	1511.2	0.834
303.15 K, m1 = 0.009	996.48	1511.4	0.839
303.15 K, m1 = 0.01	996.58	1511.6	0.841
303.15 K, m1 = 0.011	996.66	1511.9	0.843
303.15 K, m1 = 0.012	996.75	1512	0.846
308.15 K, m1 = 0.001	994.18	1520.1	0.72
308.15 K, m1 = 0.002	994.27	1520.4	0.721
308.15 K, m1 = 0.003	994.35	1520.6	0.722
308.15 K, m1 = 0.004	994.44	1520.8	0.726
308.15 K, m1 = 0.005	994.52	1521.2	0.73
308.15 K, m1 = 0.006	994.59	1521.5	0.743
308.15 K, m1 = 0.007	994.68	1521.7	0.752
308.15 K, m1 = 0.008	994.77	1522	0.756
308.15 K, m1 = 0.009	994.84	1522.2	0.76
308.15 K, m1 = 0.01	994.93	1522.4	0.763
308.15 K, m1 = 0.011	995.02	1522.2	0.764
308.15 K, m1 = 0.012	995.1	1522.4	0.766
313.15 K, m1 = 0.001	992.3	1529.2	0.654
313.15 K, m1 = 0.002	992.45	1529.4	0.655
313.15 K, m1 = 0.003	992.53	1529.6	0.657
313.15 K, m1 = 0.004	992.61	1529.8	0.659
313.15 K, m1 = 0.005	992.69	1529.9	0.664
313.15 K, m1 = 0.006	992.76	1530.1	0.678
313.15 K, m1 = 0.007	992.84	1530.3	0.686
313.15 K, m1 = 0.008	992.93	1530.5	0.69
313.15 K, m1 = 0.009	993.01	1530.7	0.694
313.15 K, m1 = 0.01	993.1	1530.9	0.695
313.15 K, m1 = 0.011	993.2	1531	0.699
313.15 K, m1 = 0.012	993.28	1531.2	0.699

C[C@H](CCC(=O)[O-])[C@H]1CC[C@H]2[C@@H]3[C@H](O)C[C@@H]4C[C@H](O)CC[C@]4(C)[C@H]3C[C@H](O)[C@]12C.[Na+] [sodium cholate] + O
Settings	mass density [kg/m3]	speed of sound [m/s]	viscosity [mPa·s]
293.15 K, m1 = 0.002	998.46	1483.6	1.004
293.15 K, m1 = 0.004	998.67	1484.3	1.007
293.15 K, m1 = 0.006	998.88	1484.8	1.011
293.15 K, m1 = 0.008	999.1	1485.3	1.016
293.15 K, m1 = 0.01	999.32	1486	1.021
293.15 K, m1 = 0.012	999.53	1486.7	1.025
293.15 K, m1 = 0.014	999.76	1487.3	1.032
293.15 K, m1 = 0.016	999.98	1487.8	1.037
293.15 K, m1 = 0.018	1000.2	1488.3	1.041
293.15 K, m1 = 0.02	1000.41	1488.8	1.044
293.15 K, m1 = 0.022	1000.63	1489	1.048
293.15 K, m1 = 0.024	1000.83	1489.6	1.051
298.15 K, m1 = 0.002	997.29	1497.5	0.893
298.15 K, m1 = 0.004	997.5	1498	0.896
298.15 K, m1 = 0.006	997.7	1498.6	0.899
298.15 K, m1 = 0.008	997.91	1499.2	0.903
298.15 K, m1 = 0.01	998.13	1499.9	0.906
298.15 K, m1 = 0.012	998.34	1500.5	0.911
298.15 K, m1 = 0.014	998.56	1501	0.918
298.15 K, m1 = 0.016	998.77	1501.6	0.922
298.15 K, m1 = 0.018	998.97	1502	0.926
298.15 K, m1 = 0.02	999.19	1502.3	0.93
298.15 K, m1 = 0.022	999.39	1502.8	0.933
298.15 K, m1 = 0.024	999.6	1503.3	0.936
303.15 K, m1 = 0.002	995.88	1509.8	0.8
303.15 K, m1 = 0.004	996.08	1510.2	0.803
303.15 K, m1 = 0.006	996.29	1510.8	0.806
303.15 K, m1 = 0.008	996.49	1511.3	0.809
303.15 K, m1 = 0.01	996.7	1511.9	0.813
303.15 K, m1 = 0.012	996.91	1512.4	0.817
303.15 K, m1 = 0.014	997.12	1512.9	0.823
303.15 K, m1 = 0.016	997.34	1513.4	0.827
303.15 K, m1 = 0.018	997.54	1513.8	0.831
303.15 K, m1 = 0.02	997.74	1514.2	0.835
303.15 K, m1 = 0.022	997.94	1514.7	0.838
303.15 K, m1 = 0.024	998.14	1515.1	0.841
308.15 K, m1 = 0.002	994.26	1520.5	0.722
308.15 K, m1 = 0.004	994.46	1520.9	0.725
308.15 K, m1 = 0.006	994.66	1521.4	0.727
308.15 K, m1 = 0.008	994.87	1521.9	0.73
308.15 K, m1 = 0.01	995.08	1522.4	0.734
308.15 K, m1 = 0.012	995.29	1522.9	0.737
308.15 K, m1 = 0.014	995.5	1523.4	0.742
308.15 K, m1 = 0.016	995.7	1523.9	0.747
308.15 K, m1 = 0.018	995.9	1524.4	0.751
308.15 K, m1 = 0.02	996.1	1524.8	0.755
308.15 K, m1 = 0.022	996.29	1525.2	0.758
308.15 K, m1 = 0.024	996.49	1525.6	0.76
313.15 K, m1 = 0.002	992.43	1529.5	0.655
313.15 K, m1 = 0.004	992.63	1529.8	0.658
313.15 K, m1 = 0.006	992.84	1530.3	0.66
313.15 K, m1 = 0.008	993.04	1530.8	0.663
313.15 K, m1 = 0.01	993.24	1531.2	0.666
313.15 K, m1 = 0.012	993.45	1531.7	0.67
313.15 K, m1 = 0.014	993.66	1532.2	0.675
313.15 K, m1 = 0.016	993.85	1532.6	0.679
313.15 K, m1 = 0.018	994.05	1533.1	0.684
313.15 K, m1 = 0.02	994.24	1533.5	0.686
313.15 K, m1 = 0.022	994.45	1533.8	0.689
313.15 K, m1 = 0.024	994.64	1534.2	0.691
